The source of these data is patent US20240000949A1, “Nucleic Acid-Derivatized Therapeutics” (The University of Chicago, priority 2020, published 2024).

{Alexa647} = Alexa Fluor 647 dye Some results are limits rather than exact numbers.

For one data set, the system named is E0771 tumors. The experiment in a line: E0771 tumor growth after i.v. delivery (incl. antibody depletion, anti-PD-L1 and CTX combinations). Format: in vivo, mouse. The settings on record: E64-DNA 25 μg i.v., CTX 50 mg/kg.
The subject of data set [1] is TAMs isolated from E0771 tumors. The experiment in a line: DQ-OVA degradation by TAMs treated ex vivo. It is filed as cell-based, mouse. The following applies: 100 nM, 2h ex vivo. As to the method:
FIGS. 46A-46B. A lysosome-targeted DNA nanodevice (E64-DNA) promotes antigen cross-presentation by TAMs. FIG. 43A, Representative images (left) and Pearson correlation (right) of co-localization of TMR-Dextran labeled lysosomes (green) with E64-DNA (red). Pearson correlation with and without a 20-pixel shift (˜lysosome diameter) of the green signal. n=15 cells/group. scale bar=[…]. FIG. 43B, DQ-OVA degradation by TAMs treated with E64-DNA, DNA, or E64 (100 nM) for 2h. n=3/group. Statistical significance was calculated via two-tailed Student's t-test (p<0.05 values are provided); error bars indicate the mean of independent experiments±s.e.m. ns; not significant. TAMs were isolated from E0771 tumors. All measurements (n) are biological replicates.
Analysis of lysosomal degradation by DQ-OVA. Lysosomal degradative capacity of macrophages was assessed by a DQ-OVA degradation assay (D-12053, Invitrogen®) according to the manufacturer's instruction. Briefly, 0.2 million cells were incubated with 10 μg/mL of DQ-OVA at room temperature for 15 min, washed, and incubated at 37° C. for another 15 min. DQ-OVA fluorescence was quantified by flow cytometry.

The subject of a further data set is TAMs / OT-1 CD8+ T cells. The experiment in a line: MHCI-restricted antigen cross-presentation by TAMs (OVA-OT-1 CD8+ T cell system). It is filed as cell-based, mouse. The settings on record: 100 nM, alone.
The next data set has as its system tumor growth. The settings on record: 1 mg, daily; cited from earlier work.
In a further data set the test system is M2 BMDMs. The experiment in a line: Uptake by M2 BMDMs in vitro (wt and scavenger receptor knockouts; nucleic acid variants). It is filed as cell-based, mouse. The settings on record: 30 min. On the procedure:
FIG. 48. A lysosome-targeted DNA nanodevice (E64-DNA) promotes antigen cross-presentation by TAMs. E64-DNA uptake by M2 BMDMs from wt, Scarb1−/−, Msr1−/−, or Cd36−/− mice. Uptake was quantified by flow cytometry; n=3/group. Statistical significance was calculated via two-tailed Student's t-test (p<0.05 values are provided); error bars indicate the mean of independent experiments±s.e.m. ns; not significant. TAMs were isolated from E0771 tumors. All measurements (n) are biological replicates.
FIGS. 49A-49B. DNA nanodevice uptake and stability. FIG. 49A, Schematic of various fluorescently labeled nucleic acid structures used for uptake studies in BMDMs. Each nucleic acid scaffold is either a single stranded or double stranded 38 mer DNA or RNA sequence. Each scaffold is labelled with an Alexa Fluor® 647 fluorophore on the 5′ end of one of the strands. FIG. 49B, Uptake of various types of nucleic acids by M2 BMDMs. n=3/group. Statistical significance was calculated via two-tailed Student's t-test (p<0.05 values are provided); error bars indicate the mean of independent experiments±s.e.m. ns; not significant. […]
E64-DNA uptake by M2 BMDMs in vitro—E64-DNA (100 nM) or other types of nucleic acids (D1-D2, D2, R1-R2, R2) was incubated with 0.2 million M2-activated BMDMs from wt, Scarb1−/−, Msr1−/−, or Cd36−/− mice for 30 min, washed with PBS, and uptake was assessed by flow cytometry.

Another data set has as its system BMDMs. The experiment in a line: Uptake of fluorescently labelled nucleic acid scaffolds by BMDMs (flow cytometry). It is filed as cell-based, mouse. The settings on record: pulsed with 50 nM scaffold 30 min, chased 15 min. The text has this:
FIGS. 1A-1B. Uptake of various oligonucleotides by bone marrow-derived macrophages (BMDMs). FIG. 1A, Schematic of various fluorescently labelled nucleic acid structures used for uptake studies in BMDMs. Each nucleic acid scaffold is either a single stranded or double stranded 38 mer DNA (D) or RNA (R) sequence, or a DNA:RNA hybrid or complex. Each scaffold is labelled with an Alexa Fluor® 647N fluorophore on the 5′ end of one of the strands. From left to right, the constructions tested were dsDNA (SEQ ID NO: 40 and SEQ ID NO: 41 or SEQ ID NO: 42), ssDNA (SEQ ID NO: 41), dsRNA (SEQ ID NO: 43 and SEQ ID NO: 44), ssRNA (SEQ ID NO: 43), and ssDNA:ssRNA (SEQ ID NO: 45 and SEQ ID NO: 46). FIG. 1B, BMDMs were pulsed with 100 nM of each nucleic acid scaffold for 30 min. The cells were then washed and chased for 15 min after which were subjected to flow cytometry based quantification. Mean fluorescence intensity (A/IFI) of nucleic acid scaffold uptake by BMDMs is shown.
Various fluorescently labelled scaffolds were tested in a variety of nucleic acid configurations (Table 1).
BMDMs were pulsed with 50 nM of each nucleic acid scaffold for 30 min. The cells were then washed and chased for 15 min after which they were subjected to flow cytometry quantification. A nucleic acid scaffold was then selected for subsequent experiments. […]

Data set [2] relates to Lactate dehydrogenase (LDH) in BMDMs. The experiment in a line: LDH activity and lactate in BMDMs under hypoxia. Format: cell-based, mouse. The following applies: hypoxic (1% 02), 24h, vs vehicle. As to the method:
FIG. 82. […] Bone marrow-derived macrophages (BMDMs) were cultured under normoxic (n) or hypoxic (h, 1% 02) conditions for 24h in the presence of vehicle (veh), GNE, or GNE-DNA.
FIG. 83. […] Bone marrow-derived macrophages (BMDMs) were cultured under normoxic (n) or hypoxic (h, 1% 02) conditions for 24h in the presence of vehicle (veh), GNE, or GNE-DNA. Intracellular lactate levels in BMDMs are decreased by GNE or GNE-DNA under hypoxic conditions to levels compared to vehicle.
BMDMs were differentiated from bone marrow stem cells with L-cell conditioned media for six days as previously described (Kratz et al.).

Data set [3] has as its system adipose tissue macrophages. The data set is described as follows: In vivo labeling by intraperitoneal dsDNA. Details: species or system mouse. The following applies: 100 μg dsDNA intraperitoneally. As to the method:
(§1) FIGS. 2A-2B. dsDNA preferentially targets macrophages in other tissues. FIG. 2A, Fluorescently labeled dsDNA (100 μg) was injected intratracheally into mice and cells were harvested 2 hr post injection with a bronchoalveolar lavage. Uptake by alveolar macrophages (AM, CD45^+CD11b^−CD11c^+) and alveolar neutrophils (AN, CD45^+CD11b^+Ly6G^+) was quantified by flow cytometry. FIG. 2B, Fluorescently labeled dsDNA (100 μg) was injected intraperitoneally into mice and visceral adipose tissue was harvested 4 hr post injection. Adipose tissue was digested to obtain the stromal vascular fraction. dsDNA uptake by cells in the stromal vascular fraction was quantified by flow cytometry. ATM=adipose tissue macrophage (CD45^+CD11b^+F4/80^+).
(§2) BMDMs were pulsed with 50 nM of each nucleic acid scaffold for 30 min. The cells were then washed and chased for 15 min after which they were subjected to flow cytometry quantification. A nucleic acid scaffold was then selected for subsequent experiments. To test the efficiency of macrophage labeling in vivo, 25 μg of fluorophore labeled dsDNA was injected intravenously into a mouse model of triple-negative breast cancer (TNBC).

The test system of another data set is alveolar macrophages. The experiment in a line: In vivo labeling by intratracheal dsDNA. The settings on record: 100 μg dsDNA intratracheally. Details: species or system mouse. On the procedure: as §1, §2
Data set [4] deals with tumor associated macrophages. The experiment in a line: In vivo macrophage labeling by i.v. fluorophore labeled dsDNA, TNBC model. The settings on record: 25 μg dsDNA i.v., TNBC mouse model. On the procedure: as §2

Description for TAMs / OT-1 CD8+ T cells: OT-1 CD8^+ T-cell activation (FIG. 53B) and proliferation (FIG. 53C) after 72h of co-culture with TAMs. n=3/group. Vehicle (Veh)=phosphate-buffered saline. Statistical significance was calculated via two-tailed Student's t-test (p<0.05 values are provided); error bars indicate the mean of independent experiments±s.e.m. ns; not significant. TAMs were isolated from E0771 tumors. All measurements (n) are biological replicates.
CD3/CD28 antibodies were included as a positive control for T cell activation. n=3/group. Statistical significance was calculated via two-tailed Student's t-test (p<0.05 values are provided); error bars indicate the mean of independent experiments±s.e.m. All measurements (n) are biological replicates. […]
T cell activation—CD8^+ or CD4^+ T cells were treated with BD GolgiPlug for the final 6 h of coculture with macrophages to allow intracellular IFNγ accumulation. […] The percent of IFNγ^+/CD44^+CD8^+ T cells was quantified by flow cytometry. In some cases, CD8^+ T cell IFNγ production in the culture medium at 72h was quantified using a mouse IFN-γ ELISA kit (Invitrogen).
T cell proliferation—Isolated CD4^+ or CD8^+ T cells were labeled with 5 μM 5,6-carboxyfluorescein diacetate succinimidyl ester (CF SE, Invitrogen) according to the manufacturer's instructions. The number of proliferating cells (CF SE-diluted) was quantified using CountBright™ beads (Invitrogen). […]

Consider `O=P1(N(CCCl)CCCl)NCCCO1` (stereo not drawn) [CTX, cyclophosphamide], for which, in the data set with E0771 tumors, the “sustained tumor regression in the E0771 model” value is “could not be replicated”.
For the molecule `CC(C)C[C@H](NC(=O)[C@@H]1O[C@H]1C(=O)O)C(=O)NCCCCNC(=N)N` [E64, reference compound], in data set [1], the “DQ-OVA degradation by TAMs” value was “could not be reproduced”. In addition, the “antigen cross-presentation by TAMs” value with TAMs / OT-1 CD8+ T cells was “did not affect cross-presentation”. The “tumor growth, free E64 high doses” value in the data set with tumor growth is listed as “limited impact on tumor growth”.
For the molecule “ssDNA: single stranded 38 mer DNA, SEQ ID NO: 41, Alexa 647 labelled (TATATATAGGATCTTGCTGTCTGGTGTGCAGTGTTGAT; DNA, 5' {Alexa647}, backbone and methylation of C not given here)”, the “internalization of 38 nucleotide Alexa 647 scaffolds by M2 BMDMs” value in the data set with M2 BMDMs is reported as “required a ssDNA or dsDNA scaffold”. In the data set with BMDMs, the “uptake of nucleic acid scaffold by BMDMs” value is recorded as “maximal uptake”.
Turning to `O=C1N[C@](c2ccc(N3CCOCC3)cc2)(c2ccsc2)CC(O)=C1Sc1ccccc1Cl` [GNE, (R)-GNE-140], in [2], the “Lactate dehydrogenase (LDH) activity in BMDMs” value is “decreased” and the “intracellular lactate levels in BMDMs” value is reported as “decreased”.

B1: dsDNA: 38-mer double stranded DNA, SEQ ID NO: 40 and SEQ ID NO: 41, Alexa 647 labelled; targeting module without drug (nucleic acid)
chain 1: ATCAACACTGCACACCAGACAGCAAGATCCTATATATA
chain 2: TATATATAGGATCTTGCTGTCTGGTGTGCAGTGTTGAT
modifications: listed as DNA, chemistry not fully specified
notes: targeting module without drug
Consider B1, for which the “DQ-OVA degradation by TAMs” value in [1] is listed as “could not be reproduced”. For the same molecule, the “labeling of adipose tissue macrophages preferentially over other cell types” value in [3] stood at 70%. Moreover, the “antigen cross-presentation by TAMs” value in the data set with TAMs / OT-1 CD8+ T cells is reported as “did not affect cross-presentation”. Further, the “labeling of alveolar macrophages preferentially over other cell types” value in the data set on alveolar macrophages is listed as above 95%. Besides, the “internalization of 38 nucleotide Alexa 647 scaffolds by M2 BMDMs” value with M2 BMDMs was “required a ssDNA or dsDNA scaffold”. The “labeling of tumor associated macrophages preferentially over any other cell type in the tumor microenvironment” value in [4] is recorded as above 90%. Further, the “uptake of nucleic acid scaffold by BMDMs” value in the data set with BMDMs was “maximal uptake”.
